One may read the IC50 as the concentration needed to halve the response being measured. A lower IC50 goes with greater potency in that assay. What is called GI50 is the concentration giving 50% growth inhibition.

The target of one assay is BRD4 (Homo sapiens (Human), UniProt O60885). Nature of the assay: TR-FRET in-vitro binding assay for BRD4. The settings on record: 45 nM His-Brd4(44-477), acetyl-histone H4 (AcK 5, 8, 12, 16) peptide. The essentials: (§1)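 Eight-point compound dilutions, delivered in 90% DMSO, were tested in a 13.55 μL final reaction. Reactions ran 35 minutes at 30° C before TR-FRET measurement.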

Another assay has as its target BRD2 (Homo sapiens (Human), UniProt P25440). Nature of the assay: TR-FRET in-vitro binding assay for BRD2. The settings on record: 45 nM His-Brd2(60-472), acetyl-histone H4 (AcK 5, 8, 12, 16) peptide. The essentials:
as §1
For orientation: In TR-FRET formats the signal depends on donor and acceptor labels being close together.

The next assay concerns the target BRD3 (Homo sapiens (Human), UniProt Q15059). The assay is described as follows: TR-FRET in-vitro binding assay for BRD3. The settings on record: 45 nM His-Brd3(20-477), acetyl-histone H4 (AcK 5, 8, 12, 16) peptide. The essentials:
as §1

Another assay has as its target CREBBP (Homo sapiens (Human), UniProt Q92793). Nature of the assay: AlphaScreen in-vitro binding assay for CREBBP. The settings on record: 324 nM His-CREBBP (1081-1197), acetyl-histone H4 (AcK 5, 8, 12) peptide. The essentials: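 IC50 values were derived by non-linear regression of percent inhibition across 8 compound concentrations. Protein was His-tagged CREBBP bromodomain (1081-1197), peptide acetyl-histone H4 (AcK 5, 8, 12), in HEPES pH 7.5 buffer. Read-out was AlphaScreen with Ni-chelate acceptor and streptavidin donor beads, 35 min at 30° C then 60 min at RT.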
On the technique in general: Alpha assays give light when donor and acceptor beads are brought close together.

A further assay concerns MV-4-11. The assay is described as follows: Cell growth inhibition assay (CellTiter-Glo), MV-4-11. Type of assay: cell-based, human. The settings on record: MV-4-11 cells, 4 days; for GI50: Homo sapiens, MV4-11, 96 h, half-maximal growth inhibition; for MV-4-11 TGI: total growth inhibition. An outline of the steps: (§2)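 A separate day 0 plate allows cytotoxic and cytostatic effects to be distinguished: viable-cell ATP after 4-day compound treatment (top 10 μM, 3-fold steps) is expressed relative to it. DMSO-only wells count as 100% and medium-only wells as −100%.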

A further assay concerns THP-1. Nature of the assay: Cell growth inhibition assay (CellTiter-Glo), THP-1. Type of assay: cell-based, human. The settings on record: THP-1 cells, 4 days; for GI50: Homo sapiens, 96 h, half-maximal growth inhibition; for THP-1 TGI: total growth inhibition. An outline of the steps: as §2
On the technique in general: ATP-based viability assays read luminescence as a measure of living cells.

The test system of a further assay is K-562. Nature of the assay: Cell growth inhibition assay (CellTiter-Glo), K-562. Type of assay: cell-based, human. The settings on record: K-562 cells, 4 days; for GI50: Homo sapiens, K562, 96 h, half-maximal growth inhibition; for K-562 TGI: total growth inhibition. The essentials: as §2

Each structure is given as a SMILES string.

Sequence of BRD2 (P25440 60-472): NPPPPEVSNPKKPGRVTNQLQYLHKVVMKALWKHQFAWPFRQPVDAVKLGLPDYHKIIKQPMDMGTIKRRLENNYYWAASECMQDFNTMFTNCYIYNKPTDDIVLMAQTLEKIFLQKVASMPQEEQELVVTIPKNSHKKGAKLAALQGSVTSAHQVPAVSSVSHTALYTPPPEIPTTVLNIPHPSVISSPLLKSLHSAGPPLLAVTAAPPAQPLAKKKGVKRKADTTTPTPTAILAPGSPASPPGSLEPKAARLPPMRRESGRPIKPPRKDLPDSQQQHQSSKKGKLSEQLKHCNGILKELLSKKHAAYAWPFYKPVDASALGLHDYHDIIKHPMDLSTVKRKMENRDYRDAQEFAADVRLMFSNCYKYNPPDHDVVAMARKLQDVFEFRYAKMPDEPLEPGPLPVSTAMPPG
Sequence of BRD3 (Q15059 20-477): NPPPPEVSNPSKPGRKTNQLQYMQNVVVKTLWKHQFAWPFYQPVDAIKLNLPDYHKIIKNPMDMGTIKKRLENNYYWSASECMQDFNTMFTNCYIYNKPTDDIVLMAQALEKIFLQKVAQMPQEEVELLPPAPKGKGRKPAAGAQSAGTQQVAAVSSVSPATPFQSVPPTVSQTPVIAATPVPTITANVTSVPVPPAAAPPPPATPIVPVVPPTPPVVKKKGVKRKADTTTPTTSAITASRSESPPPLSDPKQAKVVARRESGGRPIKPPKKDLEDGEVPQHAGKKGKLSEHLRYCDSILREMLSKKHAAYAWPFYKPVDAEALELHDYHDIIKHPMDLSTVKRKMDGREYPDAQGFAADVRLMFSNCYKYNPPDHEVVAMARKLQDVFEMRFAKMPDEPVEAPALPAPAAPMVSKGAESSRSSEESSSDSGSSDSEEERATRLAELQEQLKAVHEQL
Sequence of CREBBP (Q92793 1081-1197): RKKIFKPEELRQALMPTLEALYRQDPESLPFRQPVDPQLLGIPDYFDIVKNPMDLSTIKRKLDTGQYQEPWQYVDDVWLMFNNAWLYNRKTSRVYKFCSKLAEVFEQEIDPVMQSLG

`Cc1cn(C2COC2)c2c1C(=O)N(c1cc(C)c3nnc(C)n3c1)C2c1ccc(Cl)cc1` (centres unmarked) [Example 6, 6-(4-chlorophenyl)-5-(3,8-dimethyl-[1,2,4]triazolo[4,3-a]pyridin-6-yl)-3-methyl-1-(oxetan-3-yl)-5,6-dihydropyrrolo[3,4-b]pyrrol-4(1H)-one]: the half-maximal inhibitory concentration (IC50) on BRD4 worked out at 0.017 µM; at BRD2, 0.04 µM; at BRD3, 0.023 µM; on CREBBP it was 6 µM. Also, the GI50 with MV-4-11 amounted to 0.00674 µM; in the assay with THP-1 it was 0.0106 µM; in the assay on K-562, 0.0505 µM. Further, the “MV-4-11 TGI” value in the assay on MV-4-11 is 0.0214 µM. Further, in the assay with THP-1, the “THP-1 TGI” value came out at 0.02925 µM. Besides, the “K-562 TGI” value in the assay on K-562 is above 10 µM.
Regarding `COCCn1cc(C)c2c1C(c1ccc(Cl)cc1)N(c1cc(C)c3nnc(C)n3c1)C2=O` (centres unmarked) [Example 13, 6-(4-chlorophenyl)-5-(3,8-dimethyl-[1,2,4]triazolo[4,3-a]pyridin-6-yl)-1-(2-methoxyethyl)-3-methyl-5,6-dihydropyrrolo[3,4-b]pyrrol-4(1H)-one], the IC50 at BRD4 worked out at 0.062 µM; at BRD2, 0.071 µM; on BRD3, 0.067 µM; on CREBBP, 13.7 µM. Also, the GI50 turned out to be 0.0127 µM in the assay with MV-4-11, 0.0175 µM in the assay on THP-1 and 0.0736 µM with K-562. In addition, the “MV-4-11 TGI” value in the assay on MV-4-11 is 0.02485 µM. In addition, the “THP-1 TGI” value in the assay on THP-1 was 0.0389 µM. Further, the “K-562 TGI” value in the assay on K-562 was above 10 µM.
As for `COc1ncccc1-c1cc2c(n1C)C(c1ccc(Cl)cc1)N(c1cc(C)c3nnc(C)n3c1)C2=O` (centres unmarked) [Example 30, 6-(4-chlorophenyl)-5-(3,8-dimethyl-[1,2,4]triazolo[4,3-a]pyridin-6-yl)-2-(2-methoxypyridin-3-yl)-1-methyl-5,6-dihydropyrrolo[3,4-b]pyrrol-4(1H)-one], the IC50 on BRD4 came out at 0.04 µM; at BRD2, 0.05 µM; on BRD3, 0.047 µM; on CREBBP it was 1.3 µM. Also, the GI50 turned out to be 0.0112 µM in the assay on MV-4-11, 0.0198 µM in the assay on THP-1 and 0.0573 µM with K-562. In addition, the “MV-4-11 TGI” value in the assay with MV-4-11 was determined as 0.0213 µM. For the same compound, in the assay with THP-1, the “THP-1 TGI” value was 0.03905 µM. The “K-562 TGI” value in the assay with K-562 was above 10 µM.
For the compound `CC(=O)N1CC(n2cc(C3CC3)c3c2C(c2ccc(Cl)cc2)N(c2cc(C)c4nnn(C)c4n2)C3=O)C1` (centres unmarked) [Example 105, 1-(1-acetylazetidin-3-yl)-6-(4-chlorophenyl)-3-cyclopropyl-5-(3,7-dimethyl-3H-[1,2,3]triazolo[4,5-b]pyridin-5-yl)-5,6-dihydropyrrolo[3,4-b]pyrrol-4(1H)-one], the IC50 is below 0.011 µM at BRD4, 0.013 µM at BRD2, 0.012 µM at BRD3 and 14.1 µM on CREBBP. For the same compound, the figures for the 50% growth inhibitory concentration (GI50) with MV-4-11, with THP-1 and with K-562 were 0.000341 µM, 0.000674 µM and 0.00476 µM, respectively. In addition, in the assay on MV-4-11, the “MV-4-11 TGI” value was determined as 0.00243 µM. Moreover, the “THP-1 TGI” value in the assay with THP-1 amounted to 0.00238 µM. The “K-562 TGI” value in the assay on K-562 is above 10 µM.
Regarding `CNC(=O)n1ccc2c1C(c1ccc(Cl)cc1)N(c1cc(C)c3nnc(C)n3c1)C2=O` (centres unmarked) [Example 23, 6-(4-chlorophenyl)-5-(3,8-dimethyl-[1,2,4]triazolo[4,3-a]pyridin-6-yl)-N-methyl-4-oxo-5,6-dihydropyrrolo[3,4-b]pyrrole-1(4H)-carboxamide], the 50% inhibitory concentration (IC50) at BRD4 turned out to be 0.052 µM; on BRD2, 0.085 µM; on BRD3, 0.039 µM; on CREBBP it was 4.2 µM. Moreover, the figures for the GI50 with MV-4-11, in the assay with THP-1 and in the assay with K-562 were 0.029 µM, 0.0392 µM and 0.206 µM, respectively. Besides, in the assay on MV-4-11, the “MV-4-11 TGI” value was found to be 0.0547 µM. Further, the “THP-1 TGI” value with THP-1 amounted to 0.1017 µM. For the same compound, the “K-562 TGI” value in the assay with K-562 is above 10 µM.
Take `Cn1ccc2c1C(c1ccc(F)cc1)N(c1cc(Cl)c(=O)n(C)c1)C2=O` (centres unmarked) [Example 88, 5-(5-chloro-1-methyl-6-oxo-1,6-dihydropyridin-3-yl)-6-(4-fluorophenyl)-1-methyl-5,6-dihydropyrrolo[3,4-b]pyrrol-4(1H)-one]: the IC50 at BRD4 was 0.33 µM; at BRD2, 0.287 µM; at BRD3, 0.19 µM; on CREBBP, 7.6 µM. The GI50 in the assay with MV-4-11 stood at 0.21 µM; with THP-1, 0.321 µM; in the assay with K-562 it was 0.715 µM. Besides, in the assay with MV-4-11, the “MV-4-11 TGI” value worked out at 0.359 µM. The “THP-1 TGI” value in the assay on THP-1 amounted to 0.683 µM. The “K-562 TGI” value in the assay on K-562 is above 10 µM.
For the compound `COc1nccc(-c2cc3c(n2C)C(c2ccc(Cl)cc2)N(c2cc(Cl)c(=O)n(C)c2)C3=O)n1` (centres unmarked) [Example 39, 5-(5-chloro-1-methyl-6-oxo-1,6-dihydropyridin-3-yl)-6-(4-chlorophenyl)-2-(2-methoxypyrimidin-4-yl)-1-methyl-5,6-dihydropyrrolo[3,4-b]pyrrol-4(1H)-one], the IC50 on BRD4 worked out at 0.305 µM; on BRD2, 0.28 µM; on BRD3, 0.22 µM; at CREBBP, 1.2 µM. For the same compound, the GI50 was 0.0786 µM in the assay with MV-4-11, 0.128 µM in the assay with THP-1 and 0.55 µM in the assay with K-562. Besides, in the assay on MV-4-11, the “MV-4-11 TGI” value came out at 0.105 µM. Further, the “THP-1 TGI” value in the assay on THP-1 amounted to 0.238 µM. Moreover, the “K-562 TGI” value in the assay with K-562 is above 10 µM.
On to `Cc1cc(N2C(=O)c3cc(C4=CCOCC4)n(C)c3C2c2ccc(Cl)cc2)cn2c(C)nnc12` (centres unmarked) [Example 31, 6-(4-chlorophenyl)-2-(3,6-dihydro-2H-pyran-4-yl)-5-(3,8-dimethyl-[1,2,4]triazolo[4,3-a]pyridin-6-yl)-1-methyl-5,6-dihydropyrrolo[3,4-b]pyrrol-4(1H)-one], for which the IC50 at BRD4 was determined as 0.036 µM; on BRD2, 0.062 µM; on BRD3 it was 0.047 µM; on CREBBP, 3.1 µM. The figures for the GI50 with MV-4-11, with THP-1 and with K-562 were 0.0133 µM, 0.0309 µM and 0.0572 µM, respectively. Moreover, the “MV-4-11 TGI” value with MV-4-11 was 0.0237 µM. Besides, in the assay with THP-1, the “THP-1 TGI” value was 0.0525 µM. In the assay with K-562, the “K-562 TGI” value was above 10 µM.
Take `Cc1cc(N2C(=O)c3cc(C)n(C)c3C2c2ccc(Cl)cc2)cn(C)c1=O` (centres unmarked) [Example 69, 6-(4-chlorophenyl)-5-(1,5-dimethyl-6-oxo-1,6-dihydropyridin-3-yl)-1,2-dimethyl-5,6-dihydropyrrolo[3,4-b]pyrrol-4(1H)-one]: the 50% inhibitory concentration (IC50) was determined as 0.121 µM on BRD4, 0.159 µM on BRD2, 0.087 µM at BRD3 and 1.2 µM at CREBBP. For the same compound, the GI50 with MV-4-11 came to 0.0378 µM; in the assay on THP-1 it was 0.065 µM; with K-562, 0.236 µM. In the assay with MV-4-11, the “MV-4-11 TGI” value worked out at 0.0843 µM. The “THP-1 TGI” value in the assay on THP-1 was determined as 0.144 µM. Moreover, the “K-562 TGI” value in the assay with K-562 is above 10 µM.
As for `CNC(=O)n1cc(C)c2c1C(c1ccc(Cl)cc1)N(c1cc(C)c3nnc(C)n3c1)C2=O` (centres unmarked) [Example 9, 6-(4-chlorophenyl)-5-(3,8-dimethyl-[1,2,4]triazolo[4,3-a]pyridin-6-yl)-N,3-dimethyl-4-oxo-5,6-dihydropyrrolo[3,4-b]pyrrole-1(4H)-carboxamide], the IC50 is 0.024 µM on BRD4, 0.028 µM on BRD2, 0.015 µM at BRD3 and 6 µM on CREBBP. The figures for the GI50 in the assay with MV-4-11, with THP-1 and in the assay on K-562 were 0.013 µM, 0.0171 µM and 0.0787 µM, respectively. Further, in the assay with MV-4-11, the “MV-4-11 TGI” value is 0.02675 µM. In addition, the “THP-1 TGI” value in the assay on THP-1 was 0.0433 µM. Moreover, the “K-562 TGI” value in the assay with K-562 is above 10 µM.
As for `CCOC(=O)n1ccc2c1C(c1ccc(Cl)cc1)N(c1cc(C)c3nnc(C)n3c1)C2=O` (centres unmarked) [Example 22, Ethyl 6-(4-chlorophenyl)-5-(3,8-dimethyl-[1,2,4]triazolo[4,3-a]pyridin-6-yl)-4-oxo-5,6-dihydropyrrolo[3,4-b]pyrrole-1(4H)-carboxylate], the IC50 was determined as 0.025 µM on BRD4, 0.038 µM on BRD2, 0.026 µM at BRD3 and 12.5 µM at CREBBP. Further, the GI50 with MV-4-11 was 0.0468 µM; in the assay on THP-1 it was 0.0602 µM; with K-562, 0.226 µM. Further, in the assay on MV-4-11, the “MV-4-11 TGI” value turned out to be 0.08615 µM. Moreover, in the assay with THP-1, the “THP-1 TGI” value worked out at 0.13 µM. Moreover, in the assay on K-562, the “K-562 TGI” value is above 10 µM.
